Measured values from ChEMBL document CHEMBL2203226, “PPAR-γ agonistic metabolites from the ascidian Herdmania momus” (J Nat Prod, 2012).
Converted amounts (≈) assume the structure as drawn. The source made the active and inactive calls. The calls are words filed in the database; no cut-off is given here.

Legend:
[1] = molecular target: T1, Peroxisome proliferator-activated receptor gamma (Homo sapiens) (UniProt P37231); assay: Agonist activity at full length human PPARgamma transfected in rat Ac2F cells cotransfected with PPRE-TK-luc assessed as induction of transactivation activity at 10 ug/ml by luciferase reporter gene assay relative to control; assay type: functional, cell-based
T1 sequence (whole entry): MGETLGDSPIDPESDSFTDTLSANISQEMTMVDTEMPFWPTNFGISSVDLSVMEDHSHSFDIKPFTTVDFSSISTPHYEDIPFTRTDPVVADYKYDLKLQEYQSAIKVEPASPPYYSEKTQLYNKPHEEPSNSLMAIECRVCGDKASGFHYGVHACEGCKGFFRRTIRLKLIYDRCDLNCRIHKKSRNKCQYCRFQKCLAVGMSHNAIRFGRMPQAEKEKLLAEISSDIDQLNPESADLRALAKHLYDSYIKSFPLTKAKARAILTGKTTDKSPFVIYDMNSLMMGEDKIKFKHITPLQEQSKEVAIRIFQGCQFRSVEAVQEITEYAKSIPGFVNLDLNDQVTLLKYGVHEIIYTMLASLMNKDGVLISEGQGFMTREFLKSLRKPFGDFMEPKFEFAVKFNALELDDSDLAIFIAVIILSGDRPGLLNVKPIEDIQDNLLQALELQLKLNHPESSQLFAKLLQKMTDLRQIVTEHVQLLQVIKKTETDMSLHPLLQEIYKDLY

[2] = molecular target: T1, Peroxisome proliferator-activated receptor gamma (Homo sapiens); assay: Agonist activity at full length human PPARgamma transfected in rat Ac2F cells cotransfected with PPRE-TK-luc assessed as induction of transactivation activity at 1 ug/ml by luciferase reporter gene assay relative to control; assay type: functional, cell-based
[3] = system: Radical scavenging activity; assay: Antioxidant activity assessed as DPPH radical scavenging activity; assay type: functional
[4] = Antioxidant activity assessed as radical scavenging activity by NBT reduction assay; assay type: functional

Activity [1] | Activity [2] | IC50 [3] [mg/L] | IC50 [4] [mg/L] | SMILES
Active | Active |  |  | N[C@H](CCCCNC(=O)C(=O)c1c[nH]c2cc(O)ccc12)C(=O)O
Active | Active |  |  | N=C(N)NCCC[C@@H](NC(=O)C(=O)c1c[nH]c2cc(O)ccc12)C(=O)O
 |  | 2.31 (≈ 7.67 µM) | 1.78 (≈ 5.91 µM) | N[C@@H](Cc1ccc(OC(=O)c2ccc(O)cc2)cc1)C(=O)O
Active | Active |  |  | O=C(N[C@H](Cc1c[nH]cn1)C(=O)O)C(=O)c1c[nH]c2cc(O)ccc12
